Results reported in patent US20080090278A1, “METHOD FOR ENHANCING STABILITY OF A COMPOSITION COMPRISING SOLUBLE GLUCOSE DEHYDROGENASE (GDH)” (TOYO BOSEKI KABUSHIKI KAISHA, priority 2006, published 2008).

Experiments:
[1] = system: recombinant FAD-GDH (rAT-FAD-GDH) derived from Aspergillus terreus; assay: Thermal stabilization effect of stabilizing agents on rAT-FAD-GDH in solution (Example 9); type: physicochemical; details: for Residual activity ratio (%) / GLD activity value (U/ml) 50° C., 15 min: Table 10, buffer 50 mM K-PB, stabilizer at each final concentration described in Table 1; for Residual activity ratio (%): 50° C., 15 min versus 4° C.; for thermal stabilization effect on FAD-GDH (in words): rAT-FAD-GDH, 50° C. for 15 minutes, Example 9
Method: (§1) The reaction reagent (3 mL) is preliminarily heated at 37° C. for 5 minutes. The GDH solution (0.1 mL) is added and gently mixed, subsequently the change of absorbance at 600 nm is recorded for 5 minutes using the spectrophotometer controlled to 37° C. using water as the control, and the change of absorbance per one minute (ΔODTEST) is calculated from the linear portion of the record. The solvent in which GDH will be dissolved in place of the blinded GDH solution is added to the reagent mixture, and the change of absorbance (ΔODBLANK) per one minute is measured. The GDH activity is calculated from these values according to the following formula. One unit (U) in the GDH activity is defined as the amount of the enzyme which reduces […] DCPIP for one minute in the presence of 200 mM D-glucose.
Two tubes in which each stabilizing agent described in Table 1 had been added at each final concentration to 0.9 mL of this enzyme solution to make the total volume 1.0 mL were prepared.
(§2) In two tubes, one tube was stored at 4° C. and another tube was treated at 50° C. for 15 minutes. Then, the FAD-GDH activity in each tube was measured. The enzyme activity in the tube stored at 4° C. was made 100, and comparing with it, the activity value after being treated at 50° C. for 15 minutes was calculated as the residual activity ratio (%).

[2] = system: recombinant FAD-GDH (rAO-FAD-GDH) derived from Aspergillus oryzae; assay: Thermal stabilization effect of stabilizing agents on rAO-FAD-GDH in solution (Examples 3-6); type: physicochemical; details: for thermal stabilization effect on FAD-GDH (in words): 50° C. for 15 minutes, Example 3
Method: Enhancement of the thermal stability referred to herein means increasing of a residual ratio (%) of the GDH enzyme kept after giving the treatment with heat at a certain temperature for a certain time period to the composition comprising the GDH enzyme. In the present invention, the activity in the sample stored at 4° C. which is nearly completely kept is made 100%, this is compared with the activity in the GDH solution after giving the treatment with heat at a certain-temperature for a certain time period, and the residual ratio of the enzyme is calculated.
In the method for measuring the activity described in the method for measuring the GDH enzyme activity described later, an activity value (a) of GDH in the solution stored at 4° C. and an activity value (b) of GDH after giving the treatment with heat at a certain temperature for a certain time period were measured, a relative value[(b)/(a)×100] when the activity value (a) was made 100 was calculated. This relative value was made the residual ratio (%). Comparing the presence with the absence of the added compound, when the residual ratio was increased by the addition of the compound, it was determined that the thermal stability was enhanced.
In the present invention, the activity of FAD-dependent GDH is measured as follows.
The reaction-reagent is made by mixing 15.6 mL of the PIPES buffer, 0.2 mL of the DCPIP solution and 4 mL of the D-glucose solution.
as §1, with “D-glucose. Activity (U/mL)=[−(ΔODTEST−ΔODBLANK)×3.0×dilution scale]/(16.3×0.1×1.0) In the above formula, 3.0 represents a liquid amount (mL) of the reaction reagent+the enzyme solution, 16.3 represents a millimolar molecular absorbance coefficient (cm^2/μmol) in the condition for measuring this enzyme, 0.1 represents the liquid amount of the enzyme solution (mL) and 1.0 represents a light path length (cm) of the cell.” for “D-glucose.”
The study was performed in accordance with the method for measuring the FAD-GDH activity in Test Example 1 described above.
First, 50 mL of an enzyme solution obtained by dissolving the recombinant FAD-GDH (rAO-FAD-GDH)-derived from Aspergillus oryzae obtained in Example 1 at about 2 U/mL in an enzyme dilution solution (50 mM potassium phosphate buffer, pH 5.5, 0.1% Triton X-100) was prepared. Two tubes in which each stabilizing agent described in Table 1 had been added at each final concentration to 0.9 mL of this enzyme solution to make the total volume 1.0 mL were prepared.
as §2, with “stored at […] and” for “stored at 4° C. and”
The method was in accordance with Example 3 described above.
The methods were in accordance with Example 3 above.

[3] = stabilizer final concentration 1%, rAO-FAD-GDH about 2 U/mL, 50 mM potassium phosphate buffer pH 5.5, 0.1% Triton X-100, 4° C. sample = 100
[4] = stabilizer final concentration 0.25%, rAO-FAD-GDH, pH 5.5

Compound	Residual activity ratio (%) [1]	GLD activity value (U/ml) 50° C., 15 min [1]	Residual activity ratio (%) after treatment at 50° C., 15 min [2, 3]	thermal stabilization effect on FAD-GDH (in words) [1]	thermal stabilization effect on FAD-GDH (in words) ([2]; rAO-FAD-GDH)	Residual activity ratio (%) after treatment at 50° C., 15 min [2, 4]	Residual activity ratio (%) after treatment at 50° C., 15 min ([2]; stabilizer final concentration 0.50%, rAO-FAD-GDH, pH 5.5)	Residual activity ratio (%) after treatment at 50° C., 15 min ([2]; stabilizer final concentration 0.20%, rAO-FAD-GDH, pH 5.5)
OC[C@H]1O[C@@H]2O[C@H]3[C@H](O)[C@@H](O)[C@@H](O[C@H]4[C@H](O)[C@@H](O)[C@@H](O[C@H]5[C@H](O)[C@@H](O)[C@@H](O[C@H]6[C@H](O)[C@@H](O)[C@@H](O[C@H]7[C@H](O)[C@@H](O)[C@@H](O[C@H]1[C@H](O)[C@H]2O)O[C@@H]7CO)O[C@@H]6CO)O[C@@H]5CO)O[C@@H]4CO)O[C@@H]3CO [a-cyclodextrin]	1.5%	0.044 U/ml	44.1%	–	–	–	–	–
Inulin	1.8%	0.053 U/ml	24.7%	–	–	–	–	–
OC[C@@H](O)[C@H]1OC[C@H](O)[C@H]1O [1,4-sorbitane]	2.5%	0.072 U/ml	26.7%	high effect	high effect	–	–	–
O=C[C@H](O)[C@@H](O)[C@H](O)[C@H](O)C(=O)[O-].[Na+] [D-sodium glucuronate]	10.0%	0.279 U/ml	56.2%	high effect	high effect	–	–	–
O=C(O)[C@H]1CCCN1 [D-proline]	2.8%	0.079 U/ml	24.8%	–	–	–	–	–
N[C@@H](CC(=O)O)C(=O)O [L-aspartic acid]	0.2%	0.005 U/ml	12.2%	–	–	–	–	–
CNCC(=O)O [Sarcosine]	3.0%	0.081 U/ml	25.2%	high effect	high effect	–	–	–
O=C(O)CCCC(=O)O [Glutaric acid]	–	–	–	high effect	high effect	–	–	–
N[C@@H](Cc1c[nH]cn1)C(=O)O [L-histidine]	0.5%	0.015 U/ml	–	–	–	11.4%	–	–
OC[C@H]1O[C@H](OCC2O[C@@H](O)[C@H](O)[C@@H](O)[C@@H]2O)[C@H](O)[C@@H](O)[C@H]1O (stereo partly drawn) [a-D-(+)-melibiose]	7.3%	0.197 U/ml	59.0%	high effect	high effect	–	–	–
OC[C@H]1O[C@@](CO)(O[C@H]2O[C@H](CO)[C@@H](O)[C@H](O)[C@H]2O)[C@@H](O[C@H]2O[C@H](CO)[C@@H](O)[C@H](O)[C@H]2O)[C@@H]1O [D-(+)-melezitose]	6.9%	0.193 U/ml	44.7%	high effect	high effect	–	–	–
[Cl-].[Na+] [Sodium chloride]	–	–	–	high effect	high effect	–	–	–
CC(C)[C@H](N)C(=O)O [L-valine]	1.6%	0.043 U/ml	–	–	–	–	25.5%	–
NCCS(=O)(=O)O [Taurine]	3.2%	0.081 U/ml	23.8%	high effect	high effect	–	–	–
N[C@@H](Cc1ccccc1)C(=O)O [L-phenylalanine]	1.2%	0.031 U/ml	–	–	–	–	–	22.3%
O=C(O)[C@@H]1CCCN1 [L-(−)-proline]	1.8%	0.048 U/ml	25.2%	–	–	–	–	–
CC[C@H](C)[C@H](N)C(=O)O (racemic) [DL-isoleucine]	1.7%	0.047 U/ml	–	–	–	23.4%	–	–
NC(=O)CC[C@H](N)C(=O)O [L-glutamine]	1.7%	0.046 U/ml	–	–	–	22.6%	–	–
O=C(O)[C@@H]1CCCN1 [proline]	–	–	–	high effect	high effect	–	–	–
